Laboratory results as given in patent US8513232B2, “Substituted spirocyclic piperidine derivatives as histamine-3 (H3) receptor ligands” (Cephalon, Inc., priority 2008, dated 2013).
Where two headings read alike, the source gives them in different places.

Key:
human H3 receptor = target: T1, human H3 receptor (Homo sapiens, UniProt Q9Y5N1); test: Human H3 radioligand binding ([3H]-N-alpha-methylhistamine, SPA)
T1 construct: expressed in transfected cells
Summary of the method: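 Compounds (0.01 nM-30 μM) competed with approximately 1 nM [3H]-N-alpha-methylhistamine for human H3 receptor in membranes of stably transfected CHO cells, 10 μg protein per well, in Tris-HCl pH 7.4/MgCl2/BSA buffer for 4 h at room temperature. Bound radioligand measured by scintillation proximity; 10 μM clobenpropit gave non-specific binding.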

[1] = target: T2, rat histamine H3 receptor (Rattus norvegicus, UniProt Q9QYN8); test: Rat H3 radioligand binding ([3H]-N-alpha-methylhistamine, SPA)
T2 construct: encoding the entire 445-amino-acid rat histamine H3 receptor; expressed in transfected cells; membrane preparation
T2 sequence (Q9QYN8 whole entry): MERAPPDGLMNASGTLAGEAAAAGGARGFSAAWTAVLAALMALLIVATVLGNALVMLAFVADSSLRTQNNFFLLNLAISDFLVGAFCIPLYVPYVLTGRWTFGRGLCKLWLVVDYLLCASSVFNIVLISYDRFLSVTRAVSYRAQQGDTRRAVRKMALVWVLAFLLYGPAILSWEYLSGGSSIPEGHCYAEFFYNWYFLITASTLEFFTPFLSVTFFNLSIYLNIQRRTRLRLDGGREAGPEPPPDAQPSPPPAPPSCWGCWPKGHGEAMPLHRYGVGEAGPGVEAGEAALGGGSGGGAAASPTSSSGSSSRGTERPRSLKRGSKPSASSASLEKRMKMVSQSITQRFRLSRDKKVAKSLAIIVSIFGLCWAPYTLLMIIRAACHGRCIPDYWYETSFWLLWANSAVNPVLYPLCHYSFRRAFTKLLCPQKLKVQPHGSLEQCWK
Summary of the method: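 SPA-bead binding assay using [3H]-N-alpha-methylhistamine (approximately 1 nM final) with test compounds from 0.01 nM to 30 μM. Rat H3 receptor membranes came from stably transfected CHO-A3 cells; incubation ran 4 h at room temperature, in the dark, in Tris pH 7.4 buffer with MgCl2 and BSA. Clobenpropit (10 μM) gave non-specific binding.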

[2] = Human H3 binding, Table B, Examples 136-362, read-out: hum H3 binding Ki
[3] = Rat H3 binding, Table B, Examples 136-362, read-out: rat H3 binding Ki

T1 sequence (Q9Y5N1 whole entry): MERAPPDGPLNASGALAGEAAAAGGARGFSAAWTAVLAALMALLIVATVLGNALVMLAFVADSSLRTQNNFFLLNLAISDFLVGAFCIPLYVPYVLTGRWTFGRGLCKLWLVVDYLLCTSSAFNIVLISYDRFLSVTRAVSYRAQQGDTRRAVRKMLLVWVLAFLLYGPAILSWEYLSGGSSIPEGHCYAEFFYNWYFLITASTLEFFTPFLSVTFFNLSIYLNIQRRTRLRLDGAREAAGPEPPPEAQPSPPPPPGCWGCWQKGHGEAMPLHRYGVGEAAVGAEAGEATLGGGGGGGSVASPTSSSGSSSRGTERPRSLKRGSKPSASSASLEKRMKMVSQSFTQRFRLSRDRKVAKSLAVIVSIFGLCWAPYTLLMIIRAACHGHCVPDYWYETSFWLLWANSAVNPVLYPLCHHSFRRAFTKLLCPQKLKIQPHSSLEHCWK

SMILES	Ki (human H3 receptor; [2]) [µM]	Ki [1, 3] [µM]	melting point [°C]	Ki (human H3 receptor) [µM]	Ki [1] [µM]
c1cc(CNc2ccc3c(c2)COC2(CCN(C4CCC4)CC2)O3)ccn1 [Example 247]	< 0.2	< 0.2	45 to 48		
O=C(Nc1ccc(F)cc1)Nc1ccc2c(c1)COC1(CCN(C3CCC3)CC1)O2 [Example 248]	< 0.2	< 0.2	237 to 238		
O=C(Nc1ccc2c(c1)CCC1(CCN(C3CCC3)CC1)O2)c1cc(-c2ccccc2)ncn1 [Example 249]	< 0.2	< 0.2	153 to 155		
CC(=O)N(Cc1ccncc1)c1ccc2c(c1)COC1(CCN(C3CCC3)CC1)O2 [Example 250]	< 0.2	< 0.2	63 to 65		
COC1CCN(C(=O)c2ccc(-c3ccc4c(c3)CCC3(CCN(C5CCC5)CC3)O4)cn2)CC1 [Example 251]	< 0.2	< 0.2	150 to 152		
CO[C@H]1CCN(C(=O)c2ccc(-c3ccc4c(c3)CCC3(CCN(C5CCC5)CC3)O4)cn2)C1 [Example 252]	< 0.2	< 0.2	249 to 251		
CC(=O)N(c1ccc2c(c1)COC1(CCN(C3CCC3)CC1)O2)c1ccccn1 [Example 253]	< 0.2	< 0.2	53 to 55		
CCNC(=O)N1CCN(c2ccc3c(n2)COC2(CCN(C4CCC4)CC2)O3)CC1 [Example 254]	< 0.2	< 0.2	122 to 124		
COCCNC(=O)c1ccc(-c2ccc3c(c2)COC2(CCN(C4CCC4)CC2)O3)cc1C [Example 255]	< 0.2	< 0.2	124.6 to 126.4		
COCCNC(=O)c1c(F)cc(-c2ccc3c(c2)CCC2(CCN(C4CCC4)CC2)O3)cc1F [Example 256]	< 0.2	< 0.2	64.9 to 65.4		
c1cncc(Oc2ccc3c(c2)CCC2(CCN(C4CCC4)CC2)O3)c1 [Example 257]	< 0.2	< 0.2	255 to 257		
O=C(c1ccc(-c2ccc3c(c2)COC2(CCN(C4CCC4)CC2)O3)cc1)N1CCC(O)CC1 [Example 258]	< 0.2	< 0.2	100.4 to 102.2		
Clc1ccc(Nc2ccc3c(c2)COC2(CCN(C4CCC4)CC2)O3)cc1 [Example 259]	< 0.2	< 0.2	234 to 235		
O=C(NCCO)c1c(F)cc(-c2ccc3c(c2)CCC2(CCN(C4CCC4)CC2)O3)cc1F [Example 260]	< 0.2	< 0.2	76.3 to 78.2		
O=C(NCCO)c1c(F)cc(-c2ccc3c(c2)COC2(CCN(C4CCC4)CC2)O3)cc1F [Example 261]	< 0.2	< 0.2	78.6 to 80.4		
COCCNC(=O)c1c(F)cc(-c2ccc3c(c2)COC2(CCN(C4CCC4)CC2)O3)cc1F [Example 262]	< 0.2	< 0.2	125 to 126.3		
COC1CCN(C(=O)c2ccc(-c3ccc4c(c3)COC3(CCN(C5CCC5)CC3)O4)cc2)CC1 [Example 263]	< 0.2	< 0.2	94 to 96		
COCCNC(=O)c1ccc(-c2cc3c(cc2Cl)OC2(CCN(C4CCC4)CC2)OC3)cc1 [Example 264]	< 0.2	0.2 to 1	49 to 51		
O=C(Nc1ccc2c(c1)CCC1(CCN(C3CCC3)CC1)O2)c1cnnc2ccccc12 [Example 265]			233 to 235	< 0.2	< 0.2
CNC(=O)c1ccc(-c2cc3c(cc2Cl)OC2(CCN(C4CCC4)CC2)OC3)cc1 [Example 266]	< 0.2	< 0.2	95 to 97		
COc1cc(C(=O)Nc2ccc3c(c2)COC2(CCN(C4CCC4)CC2)O3)ccn1 [Example 267]	< 0.2	< 0.2	175 to 176		
Cc1cccc(Oc2ccc3c(c2)CCC2(CCN(C4CCC4)CC2)O3)n1 [Example 268]	< 0.2	< 0.2	213 to 215		
c1cc(COc2ccc3c(c2)CCC2(CCN(C4CCC4)CC2)O3)ccn1 [Example 269]	< 0.2	< 0.2	233 to 235		
O=C(Nc1ccc2c(c1)CCC1(CCN(C3CCC3)CC1)O2)c1ccns1 [Example 270]	< 0.2	< 0.2	109 to 111		
O=C(Nc1ccc2c(c1)COC1(CCN(C3CCC3)CC1)O2)c1cncs1 [Example 271]	< 0.2	< 0.2	222 to 224		

SMILES	Ki (human H3 receptor; [2]) [µM]	Ki [1, 3] [µM]	melting point [°C]	Ki (human H3 receptor) [µM]	Ki [1] [µM]
CNC(=O)c1ccc(-c2cc3c(cc2Cl)OC2(CCN(C4CCC4)CC2)OC3)cc1F [Example 272]	< 0.2	< 0.2	70 to 72		
c1cc(Oc2ccc3c(c2)CCC2(CCN(C4CCC4)CC2)O3)ccn1 [Example 273]	< 0.2	< 0.2	266 to 268		
COCC(C)(C)NC(=O)c1ccc(-c2ccc3c(c2)CCC2(CCN(C4CCC4)CC2)O3)cc1 [Example 274]	< 0.2	< 0.2	264 to 266		
COCCNC(=O)N1CCN(c2ccc3c(c2)COC2(CCN(C4CCC4)CC2)O3)CC1 [Example 275]	< 0.2	< 0.2	66.8 to 68.4		
O=C(Nc1ccccc1)N1CCN(c2ccc3c(c2)COC2(CCN(C4CCC4)CC2)O3)CC1 [Example 276]	< 0.2	< 0.2	194.6 to 195.8		
O=C(Nc1ccc2c(c1)COC1(CCN(C3CCC3)CC1)O2)c1ccncc1F [Example 277]	< 0.2	< 0.2	168 to 169		
O=C(Nc1ccc2c(c1)COC1(CCN(C3CCC3)CC1)O2)c1cc[nH]c(=O)c1 [Example 278]	< 0.2	< 0.2	260 to 262		
CC(C)NC(=O)N1CCN(c2ccc3c(c2)COC2(CCN(C4CCC4)CC2)O3)CC1 [Example 279]	< 0.2	< 0.2	206.5 to 207.5		
CNC(=O)c1cc(Oc2ccc3c(c2)CCC2(CCN(C4CCC4)CC2)O3)ccn1 [Example 281]	< 0.2	< 0.2	255 to 257		
CNC(=O)c1ccc(Oc2ccc3c(c2)CCC2(CCN(C4CCC4)CC2)O3)cc1 [Example 282]	< 0.2	< 0.2	179 to 181		
CC(=O)N1CCN(c2ccc3c(c2)COC2(CCN(C4CCC4)CC2)O3)CC1 [Example 283]	< 0.2	< 0.2	60.8 to 62.3		
COCC(C)(C)NC(=O)c1ccc(-c2ccc3c(c2)COC2(CCN(C4CCC4)CC2)O3)cc1 [Example 284]	< 0.2	< 0.2	138 to 140		
CNC(=O)c1ccc(Nc2ccc3c(c2)COC2(CCN(C4CCC4)CC2)O3)cc1 [Example 285]	< 0.2	< 0.2	206 to 208		
O=C(Nc1ccc2c(c1)COC1(CCN(C3CCC3)CC1)O2)c1cnco1 [Example 286]	< 0.2	< 0.2	175 to 177		
CN(C)C(=O)N1CCN(c2ccc3c(c2)COC2(CCN(C4CCC4)CC2)O3)CC1 [Example 287]	< 0.2	< 0.2	153 to 155		
Clc1ccc(COc2ccc3c(c2)CCC2(CCN(C4CCC4)CC2)O3)cc1 [Example 288]	< 0.2	< 0.2	115 to 116		
O=C(Nc1ccc2c(c1)CCC1(CCN(C3CCC3)CC1)O2)c1ccnnc1 [Example 289]	< 0.2	< 0.2	213 to 215		
CC(=O)N(Cc1ccccc1)c1ccc2c(c1)COC1(CCN(C3CCC3)CC1)O2 [Example 290]	< 0.2	< 0.2	115 to 117		
O=C(Nc1ccc2c(c1)COC1(CCN(C3CCC3)CC1)O2)c1ccnc(F)c1 [Example 291]	< 0.2	< 0.2	187 to 188		
CNC(=O)c1cc(COc2ccc3c(c2)CCC2(CCN(C4CCC4)CC2)O3)ccn1 [Example 292]	< 0.2	< 0.2	141 to 143		
CN(C(=O)N1CCN(c2ccc3c(c2)COC2(CCN(C4CCC4)CC2)O3)CC1)c1ccccc1 [Example 293]	< 0.2	< 0.2	107 to 110		
O=C(NCC(F)(F)F)N1CCN(c2ccc3c(c2)COC2(CCN(C4CCC4)CC2)O3)CC1 [Example 295]	< 0.2	< 0.2	182.5 to 183.5		
Cc1cc(C(=O)Nc2ccc3c(c2)COC2(CCN(C4CCC4)CC2)O3)cc(C)n1 [Example 296]	< 0.2	< 0.2	191 to 193		
O=C(Nc1ccc2c(c1)COC1(CCN(C3CCC3)CC1)O2)c1ccncn1 [Example 297]	< 0.2	< 0.2	198 to 199		
c1cc2c(cc1N1CCC(N3CCOCC3)CC1)COC1(CCN(C3CCC3)CC1)O2 [Example 298]	< 0.2	< 0.2	142.4 to 144.3		
